The values below come from US10611740B2, “Aryl dihydro-2H-benzo[b][1,4]oxazine sulfonamide and related compounds for use as agonists of RORγ and the treatment of disease” (Lycera Corporation, priority 2015, dated 2020).

In the test the target is T1, RORγ-LBD (Homo sapiens, UniProt P51449).
T1 construct: made in house; host or cells: SF9 cells (baculovirus)
T1 sequence (P51449 269-508 limits assumed): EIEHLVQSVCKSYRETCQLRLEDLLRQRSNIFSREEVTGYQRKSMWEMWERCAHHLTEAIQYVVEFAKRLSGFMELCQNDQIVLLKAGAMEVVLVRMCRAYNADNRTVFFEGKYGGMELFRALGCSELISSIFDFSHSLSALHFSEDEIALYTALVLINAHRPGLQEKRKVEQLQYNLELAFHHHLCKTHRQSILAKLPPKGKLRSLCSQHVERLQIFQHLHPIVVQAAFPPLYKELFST
Kind of test: RORγ-Ligand Binding Domain (LBD) TR-FRET Assay.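 On TR-FRET Assay Max Response: 665/615 nm ratio relative to signal without ursolic acid or compound set at 100.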 It counts as biochemical. Here is the method: Assay procedures and results are described below.
HIS-tagged RORγ-LBD protein was expressed in SF9 cells using a baculovirus expression system. The lysate was diluted in assay buffer (50 mM Tris pH 7.0, 50 mM KCl, 1 mM EDTA, 0.1 mM DTT, 0.01% BSA) to obtain RORγ-LBD final concentration of ˜3 nM in a 384-well assay plate (need to titrate for each batch of protein).
A stock of biotinylated-LXXLL peptide from coactivator SRC1 (Biotin-[…]) was prepared in assay buffer and added to each well (200 nM final concentration). […] RORγ antagonist ursolic acid was also included at a final concentration of 2 μM. Compounds were diluted in DMSO and further diluted in assay buffer with a final DMSO concentration at 1%.

Where only a bound is given, the exact number is not on record here.

For `C[C@H](C[C@H]1CN(S(=O)(=O)c2cccc(C(F)(F)F)c2)c2cc(-c3cc(Cl)cc(OC(F)F)c3)ccc2O1)C(=O)O` [Compound 46Q, (R)-3-((S)-6-(3-chloro-5-(difluoromethoxy)phenyl)-4-((3-(trifluoromethyl)phenyl)sulfonyl)-3,4-dihydro-2H-benzo[b][1,4]-oxazin-2-yl)-2-methylpropanoic acid], the EC50 is less than 500 nM and the “TR-FRET Assay Max Response” value is “*** (The symbol “***” indicates a value in the range of greater than 150 to 200)”.

Take `C[C@@H](C[C@H]1CN(S(=O)(=O)c2cccc(C(F)(F)F)c2)c2cc(-c3cc(Cl)cc(OC(F)F)c3)ccc2O1)C(=O)O` [Compound 46R, (S)-3-((S)-6-(3-chloro-5-(difluoromethoxy)phenyl)-4-((3-(trifluoromethyl)phenyl)sulfonyl)-3,4-dihydro-2H-benzo[b][1,4]-oxazin-2-yl)-2-methylpropanoic acid]: the concentration giving a half-maximal response (EC50) is less than 500 nM and the “TR-FRET Assay Max Response” value is “*** (The symbol “***” indicates a value in the range of greater than 150 to 200)”.

`C[C@@H](C[C@H]1CN(S(=O)(=O)c2cccc(C(F)(F)F)c2)c2cc(-c3cc(F)cc(F)c3)ccc2O1)C(=O)O` [Compound 46S, (S)-3-((S)-6-(3,5-difluorophenyl)-4-((3-(trifluoromethyl)phenyl)-sulfonyl)-3,4-dihydro-2H-benzo[b][1,4]oxazin-2-yl)-2-methylpropanoic acid]: the EC50 is less than 500 nM and the “TR-FRET Assay Max Response” value was “*** (The symbol “***” indicates a value in the range of greater than 150 to 200)”.

Consider `C[C@@H](C[C@H]1CN(S(=O)(=O)c2cccc(C(F)(F)F)c2)c2cc(-c3cccc(C(F)(F)F)n3)ccc2O1)C(=O)O` [Compound 46T, (S)-2-methyl-3-((S)-4-((3-(trifluoromethyl)phenyl)sulfonyl)-6-(6-(trifluoromethyl)pyridin-2-yl)-3,4-dihydro-2H-benzo[b][1,4]-oxazin-2-yl)propanoic acid], for which the EC50 is less than 500 nM and the “TR-FRET Assay Max Response” value is “*** (The symbol “***” indicates a value in the range of greater than 150 to 200)”.

`C[C@H](C[C@H]1CN(S(=O)(=O)c2cccc(C(F)(F)F)c2)c2cc(-c3cccc(C(F)(F)F)n3)ccc2O1)C(=O)O` [Compound 46U, (R)-2-methyl-3-((S)-4-((3-(trifluoromethyl)phenyl)sulfonyl)-6-(6-(trifluoromethyl)pyridin-2-yl)-3,4-dihydro-2H-benzo[b][1,4]-oxazin-2-yl)propanoic acid]: the EC50 is less than 500 nM and the “TR-FRET Assay Max Response” value was “*** (The symbol “***” indicates a value in the range of greater than 150 to 200)”.

For the compound `O=C(O)C1(C[C@H]2CN(S(=O)(=O)c3cccc(C(F)(F)F)c3)c3cc(-c4cccc(C(F)(F)F)n4)ccc3O2)COC1` [Compound 51D, (S)-3-((4-((3-(trifluoromethyl)-phenyl)sulfonyl)-6-(6-(trifluoro-methyl)pyridin-2-yl)-3,4-dihydro-2H-benzo[b][1,4]oxazin-2-yl)methyl)oxetane-3-carboxylic acid], the 50% effective concentration (EC50) is less than 500 nM and the “TR-FRET Assay Max Response” value is given as “*** (The symbol “***” indicates a value in the range of greater than 150 to 200)”.

As for `O=C(O)C1(C[C@H]2CN(S(=O)(=O)c3cccc(C(F)(F)F)c3)c3cc(-c4cc(F)ccc4F)ccc3O2)CCOCC1` [Compound 57, (S)-4-((6-(2,5-difluorophenyl)-4-((3-(trifluoromethyl)phenyl)sulfonyl)-3,4-dihydro-2H-benzo[b][1,4]oxazin-2-yl)methyl)tetrahydro-2H-pyran-4-carboxylic acid], the concentration giving a half-maximal response (EC50) is less than 500 nM and the “TR-FRET Assay Max Response” value was “*** (The symbol “***” indicates a value in the range of greater than 150 to 200)”.

As to `O=C(O)[C@H]1C[C@@H]([C@H]2CN(S(=O)(=O)c3cccc(C(F)(F)F)c3)c3cc(-c4cc(F)ccc4F)ccc3O2)C1` [Compound 60H, (1R,3s)-3-((S)-6-(2,5-difluoro-phenyl)-4-((3-(trifluoromethyl)-phenyl)sulfonyl)-3,4-dihydro-2H-benzo[b][1,4]oxazin-2-yl)cyclobutane-1-carboxylic acid], the EC50 was less than 500 nM and the “TR-FRET Assay Max Response” value is on record as “** (The symbol “**” indicates a value in the range of greater than 90 to 150)”.

Consider `O=C(O)[C@H]1C[C@H]([C@H]2CN(S(=O)(=O)c3cccc(C(F)(F)F)c3)c3cc(-c4cc(F)ccc4F)ccc3O2)C1` [Compound 60I, (1S,3r)-3-((S)-6-(2,5-difluoro-phenyl)-4-((3-(trifluoromethyl)-phenyl)sulfonyl)-3,4-dihydro-2H-benzo[b][1,4]oxazin-2-yl)cyclobutane-1-carboxylic acid], for which the EC50 was less than 500 nM and the “TR-FRET Assay Max Response” value is listed as “** (The symbol “**” indicates a value in the range of greater than 90 to 150)”.

Consider `O=C(O)[C@H]1C[C@@H]([C@H]2CN(S(=O)(=O)c3cccc(C(F)(F)F)c3)c3cc(-c4cc(F)cc(OC(F)F)c4)ccc3O2)C1` [Compound 60J, (1R,3s)-3-((S)-6-(3-(difluoro-methoxy)-5-fluorophenyl)-4-((3-(trifluoromethyl)phenyl)-sulfonyl)-3,4-dihydro-2H-benzo[b][1,4]-oxazin-2-yl)cyclobutane-1-carboxylic acid], for which the EC50 is less than 500 nM and the “TR-FRET Assay Max Response” value is recorded as “*** (The symbol “***” indicates a value in the range of greater than 150 to 200)”.

On to `O=C(O)[C@H]1C[C@H]([C@H]2CN(S(=O)(=O)c3cccc(C(F)(F)F)c3)c3cc(-c4cc(F)cc(OC(F)F)c4)ccc3O2)C1` [Compound 60K, (1S,3r)-3-((S)-6-(3-(difluoro-methoxy)-5-fluorophenyl)-4-((3-(trifluoromethyl)phenyl)-sulfonyl)-3,4-dihydro-2H-benzo[b][1,4]oxazin-2-yl)cyclobutane-1-carboxylic acid], for which the EC50 is less than 500 nM and the “TR-FRET Assay Max Response” value is listed as “** (The symbol “**” indicates a value in the range of greater than 90 to 150)”.

In the case of `O=C(O)[C@H]1C[C@@H]([C@H]2CN(S(=O)(=O)c3cccc(C(F)(F)F)c3)c3cc(-c4cccc(C(F)(F)F)n4)ccc3O2)C1` [Compound 71, (1R,3s)-3-((S)-4-((3-(trifluoromethyl)phenyl)sulfonyl)-6-(6-(trifluoromethyl)pyridin-2-yl)-3,4-dihydro-2H-benzo[b][1,4]oxazin-2-yl)cyclobutane-1-carboxylic acid], the EC50 is less than 500 nM and the “TR-FRET Assay Max Response” value is listed as “*** (The symbol “***” indicates a value in the range of greater than 150 to 200)”.

In the case of `O=C(O)[C@H]1C[C@H]([C@H]2CN(S(=O)(=O)c3cccc(C(F)(F)F)c3)c3cc(-c4cccc(C(F)(F)F)n4)ccc3O2)C1` [Compound 72, (1S,3r)-3-((S)-4-((3-(trifluoromethyl)phenyl)sulfonyl)-6-(6-(trifluoromethyl)pyridin-2-yl)-3,4-dihydro-2H-benzo[b][1,4]oxazin-2-yl)cyclobutane-1-carboxylic acid], the EC50 is less than 500 nM and the “TR-FRET Assay Max Response” value is on record as “** (The symbol “**” indicates a value in the range of greater than 90 to 150)”.
